Test results taken from PMC7156724, “Potent BRD4 inhibitor suppresses cancer cell-macrophage interaction” (Nature Communications, 2020).
Values joined by “and” are separate entries in the source; they are usually repeats but may differ in a detail not shown here. Equal entries are not always repeated.

What was measured:
MDA-MB231 cells = experiment: 3D matrigel assay, MDA-MB231; format: cell-based, human; settings: MDA-MB231, 100 nM
Protocol: Fig. 2 NHWD-870 inhibited BRD4 phosphorylation and c-MYC expression, and suppressed cell growth. a Representative western blot analysis of p-BRD4 (s484/488), BRD4, c-MYC, and GAPDH after treatment of MDA-MB231, SUM159, A2780 ES-2, and H526 cells with JQ-1 or NHWD-870 at the indicated concentrations for 24 h. GAPDH served as the loading control. Selected from three independent experiments. b MTT assays of H526, A2780, ES-2, and MDA-MB231 cells treated with JQ-1 or NHWD-870 at the indicated concentrations for 5 days. Data are presented as mean ± SEM from three independent experiments. c, d Clonogenic assays of H526, A2780, ES-2 and MDA-MB231 cells treated with 250 nM JQ-1 or NHWD-870 for 5 days. Shown are representative images (c) and quantification of colonies (d). […] Shown are representative images (e) and quantification of relative colony sizes (f). Scale bar, 50 μm. Data are presented as mean ± SEM from five independent experiments. p values were calculated using two-tailed, unpaired t tests in this figure. **p < 0.01; ***p < 0.001. Source data are provided as a Source Data file.
Single clone spheroids were generated by culturing A2780, ES-2, H526 and MDA-MB231 cells for 16 h as a hanging drop over a humidified plate in a CO2 incubator in their corresponding complete media. […] The relative spheroid sizes were measured with ImageJ version 1.52s using the 15 representative spheroids.

[1] = system: PI3K/AKT1 and ERK phosphorylation; experiment: Western blot of p-PI3K, p-AKT1 and p-ERK in TAMs; format: cell-based, mouse
Protocol: Supplementary Figure 13. NHWD-870 inhibited CSF1/CSF1R signaling pathw ay to reduce TAM […]
TA M s ( 2 ×10^5 cells) (treated with or without 10 ng/ml CSF1 and 100 nM NHWD-870 for 48 h) were seeded into the 6-well bottom chamber, in the presence or absence of A2780 cells (pre-treated with or without 100 nM NHWD-870 for 48 h) seeded into the top chamber (transwell size: 0.4μm). Shown are schematics of the experiment and representative western blot analysis of the indicated proteins (a), and quantification of the relative levels of p-PI3K, p-AKT1 and p-ERK over their respective total protein (b). Data are presented as mean ± SEM from 3 independent experiments. p values were calculated using two-tailed, unpaired t tests. n.s, no significant; **, p<0.01; ***, p<0.001. Source data are provided as a Source Data file. […]
4. Protein extraction and w estern blot anal ysis. Freshly dissected unfixed tissue was homogenized in lysis buffer. The lysates were centrifuged at 13,000g for 10 minutes at 4°C. Supernatants were collected and determined with a Bradford Protein Assay kit (Bio-Rad, Hercules, CA). The cell lysates were subjected to SDS-PAGE followed by immunoblotting (Immobilon P; Millipore, Milford, MA) with specific antibodies followed by detection using an enhanced chemilumine scence kit (Amersham Life Science, Arlington Heights, IL). […]

TAMs = experiment: Transwell 2D co-culture of pretreated A2780 cells and TAMs, colonies; format: cell-based, mouse
Protocol: CD45^+CD11b^+F4/80^+ TAMs were isolated from peritoneal metastasis of A2780 tumor-bearing mice and cultured in RPMI-1640 supplemented with 10% FBS, 1% penicillin/streptomycin, and 0–50 ng/ml CSF1 (R&D Systems) as indicated according to standard protocols. In the cancer cell-macrophage co-culture experiments, CSF1 was not added. In the transwell (Corning, pore size, 0.4 μm) co-culture experiments, tumor cells were placed into the upper chamber, and TAMs were seeded into the lower chamber. […]
with anti-CD45, CD11b and CD206 followed by FACS analysis. Shown are representative FACS plots (c) and quantification of the percentage of CD11b+CD206+ cells (d). Data are presented as mean ± SEM from 5 different mice. p values were calculated using two-tailed, unpaired t tests. **, p<0.01; ***, p<0.001. […] Quantification of spheroid volumes (f). Data are presented as mean ± SEM from 15 independent experiments. p values were calculated using two-tailed, unpaired t tests. **, p<0.01. […]
CD45+F4/80 +CD11b+CD206+ TAMs were isolated from tumors of ovarian cancer-bearing donor m i c e. Sh o wn are schematics of the experiment (g), representative images (h) and quantification of colonies (i). Data are presented as mean ± SEM from 3 independent experiments. p values were calculated using two-tailed, unpaired t tests. **, p<0.01; ***, p<0.001. […]

[2] = Equilibrium dialysis assay, human plasma
Protocol: The concentration was calculated using the peak area ratio of analyte and internal […]
The results were calculated by the following equations:
% Unbound = 100 *FC / TC, % Bound = 100 * (1-FC / TC)
% Recovery = 100 * (FC + TC) / T0
TC = Total compound concentration as determined by the calculated concentration on the retentate side of the membrane
FC = Free compound concentration as determined by the calculated concentration on the dialysate side of the membrane […]
Equation of first order kinetics: […]
8. Equilibrium dialysis assay. Binding with plasma protein and recovery rate of NHWD-870 were performed with human, CD-1 mouse and SD rat plasma as […]
described 2. […] The concentration was […]
calculated using the peak area ratio of analyte and internal standard. The results were calculated by the following equations: % Unbound = 100 *FC / TC, % Bound = 100 * (1-FC / TC); % Recovery = 100 * (FC + TC) / T0; TC = Total compound concentration as determined by the calculated concentration on the retentate side of the membrane; FC = Free compound concentration as determined by the (1 picture or pasted object on this page, not shown here) […]
calculated concentration on the dialysate side of the membrane; T0 = To t a l compound concentration as determined before dialysis. […]
10. hERG channel assay. […]
HEK293 cell line stably

[3] = A2780&NHWD-870, individual replicates
[4] = CSF1&NHWD-870, individual replicates

With Cc1nnn(C)c1-c1cnc2c3c4cnn(C)c4ccc3n([C@H](c3ccccc3)C3CCOCC3)c2c1 [NHWD-870] the “Clone Size (relative colony size, 3D matrigel assay)” value (MDA-MB231 cells) was 23.2 and 29.8 and 19 and 25.8 and 21.1, the “p-AKT1 (Sup Fig.13b quantification)” value [1, 3] was 2.1 and 1.52 and 1.57 and the “p-ERK (Sup Fig.13b quantification)” value [1, 3] was 1.19 and 1.05 and 0.87. For the same molecule, the “p-PI3K (Sup Fig.13b quantification)” value [1, 3] was 2.9 and 1.18 and 1.69, the “p-AKT1 (Sup Fig.13b quantification)” value [1, 4] was 6.88 and 4.52 and 4.09 and the “p-ERK (Sup Fig.13b quantification)” value [1, 4] was 3.28 and 4.19 and 4.11. The “p-PI3K (Sup Fig.13b quantification)” value [1, 4] was 2.92 and 3.3 and 3.78, the “CSF1-induced PI3K/AKT1 and ERK phosphorylation in TAMs” value ([1]; direct treatment of TAMs, 100 nM, 48 h) was “not affected” and the “PI3K/AKT1 and ERK activation in TAMs co-cultured with A2780 cells” value ([1]; pre-treatment of A2780 cells, 100 nM, 48 h) was “blocked”. For the same molecule, the “fold decrease of the growth of TAMs” value (TAMs; 50 nM, 2D system) was “about 6 fold”, the “growth of TAMs in 2D co-culture system” value (TAMs; A2780 pre-treated with 25 or 50 nM for 48h) was “potently decreased the growth of TAMs in a dose-dependent manner” and the “% Bound” value ([2]; Human plasma, equilibrium dialysis) was 97.5%. For the same molecule, the fraction unbound ([2]; human, plasma) was 0.025 and the recovery ([2]; human, plasma) was 92.8%.
